Data: ChEMBL document CHEMBL3886188, “Identification of human T2R receptors that respond to bitter compounds that elicit the bitter taste in compositions, and the use thereof in assays to identify compounds that inhibit (block) bitter taste in compositions and use thereof” (2016)

Molecular target: T1, Taste receptor type 2 member 8 (Homo sapiens, UniProt Q9NYW2)
T1 sequence (Q9NYW2 whole entry): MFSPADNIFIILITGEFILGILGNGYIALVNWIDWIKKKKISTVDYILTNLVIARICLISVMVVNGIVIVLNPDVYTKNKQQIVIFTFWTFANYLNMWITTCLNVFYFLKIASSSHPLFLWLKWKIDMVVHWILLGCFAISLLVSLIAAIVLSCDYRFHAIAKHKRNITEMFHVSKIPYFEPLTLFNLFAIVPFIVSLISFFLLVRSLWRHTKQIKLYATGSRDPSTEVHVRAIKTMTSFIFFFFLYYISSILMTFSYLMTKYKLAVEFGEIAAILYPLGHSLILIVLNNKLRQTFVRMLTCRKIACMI
Experiment: Fluorescence Polarization Assays: In another embodiment, Fluorescence Polarization ("FP") based assays may be used to detect and monitor ligand binding. Fluorescence polarization is a versatile laboratory technique for measuring equilibrium binding, nucleic acid hybridization, and enzymatic activity. […] Generally, this technique can be used to measure polarization values of fluorophores from low picomolar to micromolar levels.

IC50: 1650 nM
Compound: Cc1noc(C)c1Cn1cc(N2CCCN(Cc3ccccc3)C2=O)cn1
